Assay results reported in patent US20190314334A1, “COMPOUNDS FOR THE TREATMENT OF AUTOIMMUNE DISEASES” (QUIMATRYX, S.L., priority 2016, published 2019).

Tests used:
[1] = tested on: PLP-induced EAE; experiment: PLP-induced experimental autoimmune encephalomyelitis (EAE), clinical grading; assay type: in vivo, Female SJL mice
[2] = tested on: experimental autoimmune encephalomyelitis induced by myelin oligodendrocyte glycoprotein (MOG); experiment: MOG-induced experimental autoimmune encephalomyelitis (EAE), paralysis scores; assay type: in vivo, mice; settings: variant of Example 2
Description: A variant of the animal model of Example 2 was tested. In particular, experimental autoimmune encephalomyelitis was induced by subcutaneous injection of myelin oligodendrocyte glycoprotein (MOG) instead of PLP.

[3] = tested on: Concanavalin A (ConA)-induced hepatitis; experiment: Concanavalin A (ConA)-induced hepatitis model of autoimmune hepatitis, plasma transaminase (GPT); assay type: in vivo, Male Balb/C mice; settings: blood 8 hours after ConA, vehicle 1338 U/L
Description: Concanavalin A (ConA)-induced hepatitis is a cell-mediated immunoinflammatory condition that can be induced in mice by a single intravenous injection of ConA. It is typically employed as a model for autoimmune hepatitis. The disease is characterized by a marked increase in the plasma levels of transaminase (GPT) shortly (8-24 hours) after ConA challenge and simultaneous infiltration of the liver with neutrophils, macrophages and T cells followed by apoptosis and necrosis of the hepatocytes. The aim of the present example was to evaluate the effects of a compound of formula (I) (QTX125) on histological and clinical parameters in the model of autoimmune hepatitis induced by ConA. Male Balb/C mice 7-8 weeks old (Envigo, San Pietro al Natisone, Udine, Italy) were kept under standard laboratory conditions (non-specific pathogen free) with free access to food and water and were allowed to adapt at least one week to their environment before commencing the study. ConA (Sigma Chemical, St. Louis, Mo.), was dissolved in sterile phosphate-buffered saline (PBS) and was injected into the tail veins of the animals at the dose of 20 mg/Kg. Three groups of 10 mice were treated at −24 and −1 hours before ConA injection as described in the table below: [table] […] The depth of colour is itself determined by the concentration of analyte in the sample.

O=C(NO)c1ccc(CNC(=O)c2[nH]c(-c3ccc(O)cc3)cc2-c2ccoc2)cc1 [QTX125]
EAE clinical grading (mouse condition) with respect to vehicle ([1]; 60 mg/Kg i.p. daily for 35 consecutive days, day 7 to day 42 post immunization): substantial improvement of mouse condition
EAE clinical grading (mouse condition) with respect to dexamethasone ([1]; 60 mg/Kg i.p. daily vs dexamethasone 0.3 mg/Kg, greater part of the treatment, particularly at the end): even ameliorated with respect to dexamethasone
paralysis scores (EAE clinical grading) [2]: reduced paralysis scores
transaminase (GPT) plasma level (light emission) ([3]; 25 mg/Kg i.p. 24 and 1 hour before ConA (20 mg/Kg i.v.)): 606 U/L
transaminase (GPT) plasma level (light emission) ([3]; 50 mg/Kg i.p. 24 and 1 hour before ConA (20 mg/Kg i.v.)): 543 U/L
